Test results as given in US20150344444A1, “BET-PROTEIN-INHIBITING DIHYDROXYQUINOXALINONES” (BAYER PHARMA AKTIENGESELLSCHAFT, priority 2012, published 2015).

Key:
MOLP-8 cells = assay: MOLP-8 cell proliferation assay (alamarBlue); format: cell-based; conditions: inhibition of cell proliferation, 120 hours, human multiple myeloma cell line
Procedure: (§1) In accordance with the invention, the ability of the substances to inhibit cell proliferation was determined Cell viability was determined by means of the alamarBlue® reagent (Invitrogen) in a Victor X3 Multilabel Reader (Perkin Elmer). The excitation wavelength was 530 nm and the emission wavelength […].
The MOLP-8 cells (DSMZ, ACC 569) were sown at a concentration of 4000 cells/well in 100 μl of growth medium (RPMI1640, 20% FCS) on 96-well microtitre plates.
(§2) After overnight incubation at 37° C., the fluorescence values were determined (CI values). Then the plates were treated with various substance dilutions (1E-5 M, 3E-6 M, 1E-6 M, 3E-7 M, 1E-7 M, 3E-8 M, 1E-8 M) and incubated at 37° C. over 96 hours (MOLM-13, B16F10 cells) or 120 hours (MOLP-8 cells). Subsequently, the fluorescence values were determined (CO values). For the data analysis, the CI values were subtracted from the CO values and the results were compared between cells which had been treated with various dilutions of the substance or only with buffer solution. The IC50 values (substance concentration needed for 50% inhibition of cell proliferation) were calculated therefrom.
MOLP-8 human multiple myeloma cell line

MOLM-13 cells = assay: MOLM-13 cell proliferation assay (alamarBlue); format: cell-based; conditions: inhibition of cell proliferation, 96 hours, human AML cell line
Procedure: as §1
The MOLM-13 cells (DSMZ, ACC 554) were sown at a concentration of 4000 cells/well in 100 μl of growth medium (RPMI1640, 10% FCS) on 96-well microtitre plates.
as §2
MOLM-13 human AML (acute myeloid leukaemia) cell line

[1] = biological target: T1, BRD4 Bromo Domain 1 [BRD4(1)] (Homo sapiens, UniProt O60885); assay: BRD4(1)/acetylated peptide H4 binding assay (TR-FRET); conditions: inhibition of interaction between His6-tagged BRD4(1) (amino acids 67-152) and acetylated histone H4 peptide
T1 construct: N-terminally His6-tagged BRD4(1) (amino acids 67-152); made in house; host or cells: E. coli
From the text: Protein-Protein Interaction Assay: BRD4/Acetylated Peptide H4 Binding Assay
1. Assay Description for BRD4 Bromo Domain 1 [BRD4(1)]
To assess the BRD4(1) binding strength of the substances described in this application, the ability thereof to inhibit the interaction between BRD4(1) and acetylated histone H4 in a dose-dependent manner was quantified.
For this purpose, a time-resolved fluorescence resonance energy transfer (TR-FRET) assay was used, which measures the binding between N-terminally His6-tagged BRD4(1) (amino acids 67-152) and a synthetic acetylated histone H4 (Ac-H4) peptide with sequence GRGK(Ac)GGK(Ac)GLGK(Ac)GGAK(Ac)RHGSGSK-biotin. The recombinant BRD4(1) protein produced in house according to Filippakopoulos et al., Cell, 2012, 149:214-231 was expressed in E. coli and purified by means of (Ni-NTA) affinity and (Sephadex G-75) size exclusion chromatography. The Ac-H4 peptide can be purchased, for example, from Biosyntan (Berlin, Germany).
In the assay, typically 11 different concentrations of each substance (0.1 nM, 0.33 nM, 1.1 nM, 3.8 nM, 13 nM, 44 nM, 0.15 μM, 0.51 μM, 1.7 μM, 5.9 μM and 20 μM) were analysed as duplicates on the same microtitre plate. For this purpose, 100-fold concentrated solutions in DMSO were prepared by serial dilutions (1:3.4) of a 2 mM stock solution into a clear, 384-well microtitre plate (Greiner Bio-One, Frickenhausen, Germany). From this, 50 nl were transferred into a black test plate (Greiner Bio-One, Frickenhausen, Germany). The test was started by the addition of 2 μl of a 2.5-fold concentrated BRD4(1) solution (final concentration typically 10 nM in the 5 μl of reaction volume) in aqueous assay buffer [50 mM HEPES pH 7.5, 50 mM sodium chloride (NaCl), 0.25 mM CHAPS and 0.05% serum albumin (BSA)] to the substances in the test plate. This was followed by a 10-minute incubation step at 22° C. for the pre-equilibration of putative complexes between BRD4(1) and the substances.
The mixture was then incubated in the dark at 22° C. for one hour and then at 4° C. for at least 3 hours and for no longer than overnight. The formation of BRD4(1)/Ac-H4 complexes was determined by the measurement of the resonance energy transfer from the streptavidin-Eu cryptate to the anti-6His-XL665 antibody present in the reaction. For this purpose, the fluorescence emission was measured at 620 nm and 665 nm after excitation at 330-350 nm in a TR-FRET measuring instrument, for example a Rubystar or Pherastar (both from BMG Lab Technologies, Offenburg, Germany) or a Viewlux (Perkin-Elmer). The ratio of the emissions at 665 nm and at 622 nm was taken as an indicator of the amount of BRD4(1)/Ac-H4 complexes formed.
The data (ratios) obtained were normalized, with 0% inhibition corresponding to the mean from the measurements for a set of controls (typically 32 data points) in which all the reagents were present. In these, in place of test substances, 50 nl of DMSO (100%) were used Inhibition of 100% corresponded to the mean from the measurements for a set of controls (typically 32 data points) in which all the reagents except BRD4(1) were present. The IC50 was determined by regression analysis based on a 4-parameter equation (minimum, maximum, IC50, Hill; Y=max+(min−max)/(1+(X/IC50)Hill).

Compound `COc1ccc(CN2c3cc(Nc4ccc(C(=O)NCC5COC5)cc4)ccc3N(C)C(=O)[C@H]2C)cc1` [Example 19, 4-{[(3R)-4-(4-methoxybenzyl)-1,3-dimethyl-2-oxo-1,2,3,4-tetrahydroquinoxalin-6-yl]amino}-N-(oxetan-3-ylmethyl)benzamide] has an IC50 (MOLP-8 cells) of 0.124 µM, an IC50 (MOLM-13 cells) of 0.335 µM and an IC50 [1] of 0.148 µM.

With `COc1ccc(CN2c3cc(Nc4ccc(C(=O)N5CC6(COC6)C5)cc4)ccc3N(C)C(=O)[C@H]2C)cc1` [Example 20, (3R)-4-(4-methoxybenzyl)-1,3-dimethyl-6-{[4-(2-oxa-6-azaspiro[3.3]hept-6-ylcarbonyl)phenyl]amino}-3,4-dihydroquinoxalin-2(1H)-one] the IC50 (MOLP-8 cells) was 0.12 µM, the IC50 (MOLM-13 cells) was 0.351 µM and the IC50 [1] was 0.105 µM.

`COc1ccc(CN2c3cc(Nc4ccc(C(=O)NCCN5CCN(C)CC5)cc4)ccc3N(C)C(=O)[C@H]2C)cc1` [Example 21, 4-{[(3R)-4-(4-methoxybenzyl)-1,3-dimethyl-2-oxo-1,2,3,4-tetrahydroquinoxalin-6-yl]amino}-N-[2-(4-methylpiperazin-1-yl)ethyl]benzamide] showed an IC50 (MOLP-8 cells) of 0.069 µM, an IC50 (MOLM-13 cells) of 0.275 µM and an IC50 [1] of 0.108 µM.

With `COc1ccc(CN2c3cc(Nc4ccc(C(=O)N5CCN(C(C)C)CC5)cc4)ccc3N(C)C(=O)[C@H]2C)cc1` [Example 22, (3R)-4-(4-methoxybenzyl)-1,3-dimethyl-6-[(4-{[4-(propan-2-yl)piperazin-1-yl]carbonyl}phenyl)amino]-3,4-dihydroquinoxalin-2(1H)-one] the IC50 (MOLP-8 cells) was 0.093 µM, the IC50 (MOLM-13 cells) was 0.261 µM and the IC50 [1] was 0.175 µM.

Compound `C[C@@H]1C(=O)N(C)c2ccc(Nc3ccc(C(=O)NC4CCN(C)CC4)cc3)cc2N1C1CCCCCC1` [Example 23, 4-{[(3R)-4-cycloheptyl-1,3-dimethyl-2-oxo-1,2,3,4-tetrahydroquinoxalin-6-yl]amino}-N-(1-methylpiperidin-4-yl)benzamide] has an IC50 (MOLP-8 cells) of 1.02 µM, an IC50 (MOLM-13 cells) of 1.26 µM and an IC50 [1] of 0.176 µM.

Compound `C[C@@H]1C(=O)N(C)c2ccc(Nc3ccc(C(=O)N4CCOCC4)cc3)cc2N1C1CCCCCC1` [Example 24, (3R)-4-cycloheptyl-1,3-dimethyl-6-{[4-(morpholin-4-ylcarbonyl)phenyl]amino}-3,4-dihydroquinoxalin-2(1H)-one] has an IC50 (MOLP-8 cells) of 0.662 µM, an IC50 (MOLM-13 cells) of 0.967 µM and an IC50 [1] of 0.143 µM.

With `C[C@@H]1C(=O)N(C)c2ccc(Nc3ccc(C(=O)NCC4COC4)cc3)cc2N1C1CCCCCC1` [Example 25, 4-{[(3R)-4-cycloheptyl-1,3-dimethyl-2-oxo-1,2,3,4-tetrahydroquinoxalin-6-yl]amino}-N-(oxetan-3-ylmethyl)benzamide] the IC50 (MOLP-8 cells) was 1.36 µM, the IC50 (MOLM-13 cells) was 1.36 µM and the IC50 [1] was 0.454 µM.

For `C[C@@H]1C(=O)N(C)c2ccc(Nc3ccc(C(=O)NC4CCN(C)CC4)cc3)cc2N1C1CCOCC1` [Example 26, 4-{[(3R)-1,3-dimethyl-2-oxo-4-(tetrahydro-2H-pyran-4-yl)-1,2,3,4-tetrahydroquinoxalin-6-yl]amino}-N-(1-methylpiperidin-4-yl)benzamide], the IC50 (MOLP-8 cells) was 1.03 µM, the IC50 (MOLM-13 cells) was 1.58 µM and the IC50 [1] was 0.374 µM.

`C[C@@H]1C(=O)N(C)c2ccc(Nc3ccc(C(=O)N4CCOCC4)cc3)cc2N1C1CCOCC1` [Example 27, (3R)-1,3-dimethyl-6-{[4-(morpholin-4-ylcarbonyl)phenyl]amino}-4-(tetrahydro-2H-pyran-4-yl)-3,4-dihydroquinoxalin-2(1H)-one] was tested, and the IC50 (MOLP-8 cells) was 1.13 µM, the IC50 (MOLM-13 cells) was 1.95 µM and the IC50 [1] was 0.23 µM.

Compound `C[C@@H]1C(=O)N(C)c2ccc(Nc3ccc(C(=O)NCC4COC4)cc3)cc2N1C1CCOCC1` [Example 28, 4-{[(3R)-1,3-dimethyl-2-oxo-4-(tetrahydro-2H-pyran-4-yl)-1,2,3,4-tetrahydroquinoxalin-6-yl]amino}-N-(oxetan-3-ylmethyl)benzamide] has an IC50 (MOLP-8 cells) of 1.8 µM, an IC50 (MOLM-13 cells) of 2.76 µM and an IC50 [1] of 0.366 µM.

In the case of `C[C@@H]1C(=O)N(C)c2ccc(Nc3ccc(C(=O)N4CC5(COC5)C4)cc3)cc2N1C1CCOCC1` [Example 29], the IC50 (MOLP-8 cells) is reported as 1.12 µM, the IC50 (MOLM-13 cells) is reported as 2.27 µM and the IC50 [1] is reported as 0.185 µM.

Compound `C[C@@H]1C(=O)N(C)c2ccc(Nc3ccc(C(=O)NCCN4CCN(C)CC4)cc3)cc2N1C1CCOCC1` [Example 30, 4-{[(3R)-1,3-dimethyl-2-oxo-4-(tetrahydro-2H-pyran-4-yl)-1,2,3,4-tetrahydroquinoxalin-6-yl]amino}-N-[2-(4-methylpiperazin-1-yl)ethyl]benzamide] has an IC50 (MOLP-8 cells) of 0.869 µM, an IC50 (MOLM-13 cells) of 1.7 µM and an IC50 [1] of 0.384 µM.

`C[C@@H]1C(=O)N(C)c2ccc(Nc3ccc(C(=O)N4CC5(CCS5(=O)=O)C4)cc3)cc2N1C1CCOCC1` [Example 31, (3R)-6-({4-[(1,1-dioxido-1-thia-6-azaspiro[3.3]hept-6-yl)carbonyl]phenyl}amino)-1,3-dimethyl-4-(tetrahydro-2H-pyran-4-yl)-3,4-dihydroquinoxalin-2(1H)-one] showed an IC50 (MOLP-8 cells) of 1.25 µM, an IC50 (MOLM-13 cells) of 1.79 µM and an IC50 [1] of 0.192 µM.

`CC(=O)N1CCC(NC(=O)c2ccc(Nc3ccc4c(c3)N(C3CCOCC3)[C@H](C)C(=O)N4C)cc2)CC1` [Example 32, N-(1-acetylpiperidin-4-yl)-4-{[(3R)-1,3-dimethyl-2-oxo-4-(tetrahydro-2H-pyran-4-yl)-1,2,3,4-tetrahydroquinoxalin-6-yl]amino}benzamide] gave an IC50 (MOLP-8 cells) of 2.58 µM, an IC50 (MOLM-13 cells) of 3.45 µM and an IC50 [1] of 0.371 µM.

Work on `CC(C)N1CCN(C(=O)c2ccc(Nc3ccc4c(c3)N(C3CCOCC3)[C@H](C)C(=O)N4C)cc2)CC1` [Example 33] yielded an IC50 (MOLP-8 cells) of 0.509 µM, an IC50 (MOLM-13 cells) of 1.05 µM and an IC50 [1] of 0.31 µM.

Work on `C[C@@H]1C(=O)N(C)c2ccc(Nc3ccc(C(=O)NC4CN(C)C4)cc3)cc2N1C1CCOCC1` [Example 34, 4-{[(3R)-1,3-dimethyl-2-oxo-4-(tetrahydro-2H-pyran-4-yl)-1,2,3,4-tetrahydroquinoxalin-6-yl]amino}-N-(1-methylazetidin-3-yl)benzamide] yielded an IC50 (MOLP-8 cells) of 1.54 µM, an IC50 (MOLM-13 cells) of 2.1 µM and an IC50 [1] of 0.511 µM.

`C[C@@H]1C(=O)N(C)c2ccc(Nc3ccc(C(=O)NC4CC4)cc3)cc2N1C1CCOCC1` [Example 35, N-cyclopropyl-4-{[(3R)-1,3-dimethyl-2-oxo-4-(tetrahydro-2H-pyran-4-yl)-1,2,3,4-tetrahydroquinoxalin-6-yl]amino}benzamide] was tested, and the IC50 (MOLP-8 cells) was 1.39 µM, the IC50 (MOLM-13 cells) was 2.48 µM and the IC50 [1] was 0.365 µM.
